Measurements from patent publication US20050222209A1, “Methods and compositions for the treatment, prevention or management of dysfunctional sleep and dysfunctional sleep associated with disease” (priority 2004, published 2005).

Assays:
[1] = cited from earlier work; for interconversion on heating (desolvation experiments): Form E: about 125° C. for about five minutes, Form B: 175° C. for about five minutes; for interconversion of polymorphic form: solvent system or relative humidity as stated; for hygroscopicity: crystalline polymorphic form
subjects = experiment: Pittsburgh Sleep Quality Index study (PSQI, daily sleep diary); type: in vivo, human; conditions: 10 mg/day orally, 12 week study, twelve subjects
Protocol: Twelve subjects were treated with 10 mg/day of 3-(4-amino-1-oxo-1,3-dihydro-isoindol-2-yl)-piperidine-2,6-dione orally for 12 weeks. Subjects were seen every 2 weeks until study completion. Subjects were asked to keep a daily sleep diary asking how much interference with sleep (0-10 scale) was experienced. Patients were also asked to complete the Pittsburgh Sleep Quality Inventory (PSQI) at the start of the treatment and ever 4 weeks thereafter, Buysse, DJ et al., Journal of Psychiatric Research, 28 (2), 193-213, 1989.

Structure (SMILES)	interconversion on heating (desolvation experiments) [1]	interconversion of polymorphic form [1]	hygroscopicity [1]	further results
Nc1cccc2c1CN(C1CCC(=O)NC1=O)C2=O (stereo not shown) [Form B, 3-(4-amino-1-oxo-1,3 dihydro-isoindol-2-yl)-piperidene-2,6-dione]	can convert to Form F	converts to Form E in aqueous solvent systems		
Nc1cccc2c1CN(C1CCC(=O)NC1=O)C2=O (stereo not shown) [Form D, 3-(4-amino-1-oxo-1,3 dihydro-isoindol-2-yl)-piperidene-2,6-dione]		will typically convert to Form B when stressed at higher relative humidities	either weakly or not hygroscopic	
Nc1cccc2c1CN(C1CCC(=O)NC1=O)C2=O (stereo not shown) [3-(4-amino-1-oxo-1,3-dihydro-isoindol-2-yl)-piperidine-2,6-dione]				need for sleep medications (subjects): significantly improved; overall sleep quality (subjects): significantly improved; presence of daytime sleepiness (subjects): significantly improved
Nc1cccc2c1CN(C1CCC(=O)NC1=O)C2=O (stereo not shown) [Form A, 3-(4-amino-1-oxo-1,3 dihydro-isoindol-2-yl)-piperidene-2,6-dione]			weakly or not hygroscopic	relative stability of polymorph ([1]; Form A: among anhydrous polymorphs, Form E: in aqueous solvent systems): most thermodynamically stable anhydrous polymorph
Nc1cccc2c1CN(C1CCC(=O)NC1=O)C2=O (stereo not shown) [Form E, 3-(4-amino-1-oxo-1,3 dihydro-isoindol-2-yl)-piperidene-2,6-dione]	can convert to Form B	can convert to Form C in an acetone solvent system and to Form G in a THF solvent system		
Nc1cccc2c1CN(C1CCC(=O)NC1=O)C2=O (stereo not shown) [Form C, 3-(4-amino-1-oxo-1,3 dihydro-isoindol-2-yl)-piperidene-2,6-dione]		can convert to Form B at higher relative humidities	not hygroscopic below about 85% RH	
